Experimental data from US20250257041A1, “INDUCERS OF INTEGRATED STRESS RESPONSE TO TREAT CANCER” (The Board of Regents of The University of Texas System, priority 2022, published 2025).
Like-named read-outs stand apart in the source and are kept apart here.

Experiments:
[1] = test system: HCT116 GCN2KO; assay: Proliferation of HCT116 cells with GCN2 knocked out (CRISPR), Cell TiterGlo; type: cell-based, human; settings: for IC50: Homo sapiens
Summary of the method: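 HCT116 cells with CRISPR GCN2 knockout, run alongside wild type and wild type plus ISRIB in the same experiment. 10-point dose response in triplicate; proliferation read by CellTiter-Glo and IC50 derived.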

[2] = test system: HCT-116 (colorectal) cells; assay: HCT-116 viability and cytotoxicity, GF-AFC and Cytox; type: cell-based, human; settings: varying doses
Procedure: FIG. 6B provided cytostatic data for colorectal cells, with compound SW388710. […] HCT-116 (colorectal) cells were incubated with varying doses of SW388710.

[3] = test system: HCT116 WT; assay: Proliferation of HCT116 colorectal cell line, Cell TiterGlo; type: cell-based, human
Summary of the method: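 HCT116 colorectal cells, wild type, GCN2 CRISPR knockout, or wild type plus ISRIB; proliferation read by CellTiter-Glo luminescence. 10-point dose response in triplicate, IC50 reported; multiple values are independent experiments.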

[4] = test system: Jurkat (Leukemia) cells; assay: Jurkat viability and cytotoxicity, GF-AFC and Cytox; type: cell-based, human; settings: varying doses
Procedure: FIG. 6A provides cytotoxicity studies for leukemia cells (Jurkat) with compound SW388710. […] Jurkat (Leukemia) cells were incubated with varying doses of SW388710.

[5] = test system: Jurkat cells; assay: Jurkat cell proliferation over three days, Cell Titer Glo; type: cell-based, human
Procedure: (§1) FIG. 5A provides cell proliferation studies using Jurkat cells using exemplary novel compounds provided in the current disclosure. Jurkat cells, which are derived from a human leukemia, were incubated with varying concentrations of SW388710. Cell proliferation over three days was evaluated using luminescence from Cell Titer Glo (Promega) which reflects ATP levels.
as §1, with “5B” for “5A”, “SW393071.” for “SW388710.”

[6] = test system: phospho-GCN2; assay: Western blot for phospho-GCN2 in HCT116 wild-type and RPS23 mutant cells; type: cell-based, human; settings: wild-type HCT116 versus RPS23 del R107-G109 mutant
Procedure: FIG. 12 is a western blot analysis showing the RPS23 is required for induction of GCN2 phosphorylation by SW710 (SW388710). Cells were incubated with SW710, lysed, then evaluated via western blot for phospho-GCN2, a marker of activation of the integrated stress response.
To confirm this hypothesis, wild-type HCT116 cells and HCT116 RPS23 del R107-G109 mutant cells were incubated with SW388710. Cells were lysed and evaluated via western blot for phospho-GCN2, a marker of activation of the integrated stress response.

[7] = Solubility remark printed in the HCT116 WT column; type: physicochemical; settings: cell wraps over r19 and r20: poor solubility

SMILES | Resistance on knockout of GCN2 ([1]; HCT116, GCN2 but not other activating kinases) | IC50 ([1]; HCT-116, HCT116 cells with GCN2 knocked out using CRISPR, read-out: HCT116 IC50 (uM) HCT116 − GCN2KO) [µM] | Proliferation of colorectal cancer cells [2] | IC50 ([3]; Homo sapiens, HCT-116, wild type HCT116, 10-point dose response in triplicate, multiple values = separate independent experiments, read-out: HCT116 IC50 (uM) HCT116 WT) [µM] | IC50 ([3]; Homo sapiens, HCT-116, wild type HCT116, tested simultaneously with GCN2KO and +ISRIB, read-out: HCT116 IC50 (uM) HCT116 WT (repeat)) [µM] | IC50 ([3]; wild type HCT116, compound plus 10 nM of ISRIB, read-out: HCT116 IC50 (uM) HCT116 WT + ISRIB) [µM] | Cell death in leukemic cells [4] | IC50 ([5]; Homo sapiens, Jurkat, 72 h, three days, Cell Titer Glo luminescence) [µM] | Effect of ISRIB on anti-proliferative activity in Jurkat cells ([5]; addition of 10 nM of ISRIB) | Activation of the ISR (phosphorylation of GCN2) [6] | IC50 ([1]; HCT-116, read-out: HCT116 IC50 (uM) HCT116 − GCN2KO) [µM] | IC50 ([3]; Homo sapiens, HCT-116, read-out: HCT116 IC50 (uM) HCT116 WT (repeat)) [µM] | Solubility (remark in place of an IC50) [7]
COc1cccc(C(=O)Nc2cc(-c3ccc(NC(=O)c4ccccc4)cc3)nn2C)c1 [SW388710, N-(3-(4-Benzamidophenyl)-1-methyl-1H-pyrazol-5-yl)-3-methoxybenzamide] | confers resistance | 1.95 | reduces the proliferation of colorectal cancer cells | 0.23 | 0.21 | 1.89 | induces cell death in leukemic cells | 0.0782 | relative resistance | Wild-type but not RPS23 mutant cells, showed activation of the ISR |  |  | 
Cn1nc(-c2ccc(NC(=O)c3ccccc3)cc2)cc1NC(=O)c1ccc(C(=O)c2ccccc2)cc1 [SW389003, N-(3-(4-Benzamidophenyl)-1-methyl-1H-pyrazol-5-yl)-4-benzoylbenzamide] |  |  |  |  |  |  |  |  |  |  | ≥ 50 | ≥ 50 | poor
